Laboratory results taken from publication PMC10778980, “Profiling Novel Quinuclidine-Based Derivatives as Potential Anticholinesterase Drugs: Enzyme Inhibition and Effects on Cell Viability” (International Journal of Molecular Sciences, 2023).
Entries after “also recorded” stand apart in the source; their conditions may differ. Where two headings read alike, the source gives them in different places.

Columns and labels:
[1] = target: T1, human AChE (Homo sapiens, UniProt P22303); assay: Reversible inhibition of AChE (Ellman's procedure, Hunter–Downs evaluation); format: biochemical; conditions: for Ki: Ki ± standard error, 0.1, 0.2, 0.35 and 0.5 mM substrate ATCh, 25 °C, pH 7.4; for Ki (AChE)/Ki (BChE): selectivity ratio
T1 construct: The sources of human AChE and BChE were native erythrocytes and plasma, respectively; from tissue; host or cells: human erythrocytes from venous blood of a healthy volunteer
Excerpt: (§1) Cholinesterase substrate acetylthiocholine (ATCh) and the thiol reagent 5,5′-dithiobis(2-nitrobenzoic acid) (DTNB) for the enzyme activity measurement were purchased from Sigma-Aldrich (St. Louis, MO, USA). The sources of human AChE and BChE were native erythrocytes and plasma, respectively, obtained from the blood of a healthy volunteer and in accordance with the approval of the Ethics Committee of the Institute for Medical Research and Occupational Health (approval number: 100-21/23-6). Erythrocytes and plasma were isolated from the whole blood and prepared according to a previously published procedure. Namely, venous blood was collected into a heparinized tube and centrifuged (at 4 °C, 20 min on 2500 rpm, Eppendorf centrifuge 5702R) to separate plasma from the erythrocytes. Plasma was removed and used as a source of BChE, while erythrocytes were washed twice with the 0.1 M sodium phosphate buffer, pH 7.4, in a volume corresponding to the initial volume of the whole blood. Both plasma and erythrocytes were frozen at −20 °C until use. Quinuclidine compounds were dissolved in dH2O as 10 or 100 mM; exceptionally, 3-hydroxyimino compounds with longer chains (C12−C16) were dissolved in DMSO as 100 mM solutions. Stock solutions were kept at 4 °C until use. Further dilutions were made in distilled water.
(§2) The reversible inhibition experiments followed a previously published procedure. Namely, the enzyme activity was measured in the presence of a wide range of quinuclidine compound concentrations and in the substrate range from 0.1 to 0.5 mM to confirm the type of compound binding. The activity was assayed following the Ellman’s procedure, with the modification in the wavelength used for detection of the TNB anion in the case of AChE activity measurement due to the interference of the hemoglobin, and according to Worek et al.. The assay was performed in 96-well plates on an Infinite M200PRO plate reader (Tecan Austria GmbH, Salzburg, Austria) at 25 °C. Each concentration was tested in triplicate or quadruplicate on each plate. The inhibition mixture contained 0.1 M sodium phosphate buffer, pH 7.4, enzyme (AChE or BChE), quinuclidine compound (0.2–400 μM final), DTNB (0.3 mM final), and ATCh (from 0.1 to 0.5 mM final) to start the reaction. The increase in absorbance was read at 436 nm for AChE and at 412 nm for BChE. The measured activity in the presence of compounds was corrected for the non-enzymatic hydrolysis of substrate ATCh, if detected. The reversible enzyme–quinuclidine complex dissociation constants (the inhibition constants) Ki were evaluated from the effect of the substrate concentration on the degree of inhibition according to the Hunter–Downs equation as described previously, taking into account only quinuclidine concentrations where 20–80% inhibition of the activity was observed.

[2] = target: T2, human BChE (Homo sapiens, UniProt P06276); assay: biochemical
T2 construct: Plasma was removed and used as a source of BChE; from tissue; host or cells: human blood plasma from a healthy volunteer
Excerpt: as §1, §2

[3] = tested on: HepG2 cells; assay: Cytotoxicity assay (MTS) on HepG2; format: cell-based; conditions: Homo sapiens
Experimental: (§3) SH-SY5Y cells were grown in DMEM F12 (Sigma-Aldrich, St. Louis, MO, USA) supplemented with 15% (v/v) fetal bovine serum (FBS), 2 mM glutamine, and 1% (v/v) non-essential amino acids (NEAA). HepG2 cells were grown in EMEM supplemented with 10% (v/v) FBS, 2 mM glutamine, and 1% (v/v) non-essential amino acids NEAA. All media and supplements were purchased from Sigma-Aldrich, Steinheim, Germany.
(§4) The procedure followed a previously described protocol.

[4] = tested on: SH-SY5Y cells; assay: Cytotoxicity assay (MTS) on SH-SY5Y; format: cell-based; conditions: Homo sapiens
Experimental: as §3, §4

[5] = tested on: SH-SY5Y cells; assay: Mitochondrial membrane potential (TMRE assay) on SH-SY5Y; format: cell-based, human; conditions: 4 h exposure, LOAEL concentrations
Experimental: (§5) Human neuroblastoma SH-SY5Y (ECACC 94030304) and human hepatocyte carcinoma HepG2 (ECACC 85011430) were used to evaluate in vitro dose- and time-dependent different cell effects. The SH-SY5Y cell line was selected as it represents a well-established model for studying neuronal cells, while HepG2 hepatocytes represent a liver model as a major organ participating in the metabolism of diverse compounds [31, 61, 62]. SH-SY5Y cells were grown in DMEM F12 (Sigma-Aldrich, St. Louis, MO, USA) supplemented with 15% (v/v) fetal bovine serum (FBS), 2 mM glutamine, and 1% (v/v) non-essential amino acids (NEAA). HepG2 cells were grown in EMEM supplemented with 10% (v/v) FBS, 2 mM glutamine, and 1% (v/v) non-essential amino acids NEAA. All media and supplements were purchased from Sigma-Aldrich, Steinheim, Germany.
(§6) Mitochondrial membrane potential (ΔΨm) was determined using a cell-permeable, potential-sensitive cationic dye, tetramethylrhodamine ethyl ester perchlorate (TMRE, Cell Signaling Technology Europe, Leiden, The Netherlands). Cells were exposed for 4 h to derivatives 3–5 and 10–12. The procedure followed a previously described protocol. A concentration of 50 µM carbonyl cyanide 3-chlorophenylhydrazone (CCCP, Cell Signaling Technology Europe, Leiden, The Netherlands) was used as a positive control. Data were evaluated from at least three independent experiments (performed in duplicate) and presented as a normalized signal to the untreated control, according to the manufacturer’s calculation protocol.

[6] = tested on: HepG2 cells; assay: Cell membrane integrity (LDH release) on HepG2; format: cell-based, human; conditions: HepG2, 4 h exposure, 12.5–200 µM
Experimental: as §5
(§7) Cell membrane integrity was determined after 4 h exposure to derivatives 3–5 and 10–12 by measuring the release of the intracellular lactate dehydrogenase (LDH), and the procedure followed a previously described protocol using The CytoTox-ONE™ Homogeneous Membrane Integrity Assay (Promega, Madison, WI, USA). Triton X-100 at a final concentration of 0.18% (v/v) (stock of 9% in water; Sigma-Aldrich, Steinheim, Germany) was used as a positive control to determine the maximal LDH release. Data were taken from at least two independent experiments (each treatment performed in duplicate) and plotted as a percentage of LDH release compared to the determined maximal LDH release, according to the manufacturer’s calculation protocol.

[7] = tested on: SH-SY5Y cells; assay: Cell membrane integrity (LDH release) on SH-SY5Y; format: cell-based, human; conditions: 4 h exposure, 12.5–200 µM
Experimental: as §5, §7

[8] = tested on: HepG2 cells; assay: Mitochondrial membrane potential (TMRE assay) on HepG2; format: cell-based, human; conditions: HepG2, 4 h exposure, LOAEL concentrations
Experimental: as §5, §6

[9] = Ki ± standard error, 0.1, 0.2, 0.35 and 0.5 mM substrate ATCh, 25 °C, pH 7.4, read-out: Ki BChE
[10] = HepG2, read-out: IC50 ± SE HepG2 1 h, 1 h exposure
[11] = HepG2, 4 h exposure, read-out: IC50 ± SE HepG2 4 h
[12] = HepG2, 24 h exposure, read-out: IC50 ± SE HepG2 24 h
[13] = 4 h exposure, read-out: IC50 ± SE SH-SY5Y 4 h
[14] = 24 h exposure, read-out: IC50 ± SE SH-SY5Y 24 h
[15] = read-out: IC50 ± SE SH-SY5Y 1 h, 1 h exposure

T2 sequence (P06276 29-602): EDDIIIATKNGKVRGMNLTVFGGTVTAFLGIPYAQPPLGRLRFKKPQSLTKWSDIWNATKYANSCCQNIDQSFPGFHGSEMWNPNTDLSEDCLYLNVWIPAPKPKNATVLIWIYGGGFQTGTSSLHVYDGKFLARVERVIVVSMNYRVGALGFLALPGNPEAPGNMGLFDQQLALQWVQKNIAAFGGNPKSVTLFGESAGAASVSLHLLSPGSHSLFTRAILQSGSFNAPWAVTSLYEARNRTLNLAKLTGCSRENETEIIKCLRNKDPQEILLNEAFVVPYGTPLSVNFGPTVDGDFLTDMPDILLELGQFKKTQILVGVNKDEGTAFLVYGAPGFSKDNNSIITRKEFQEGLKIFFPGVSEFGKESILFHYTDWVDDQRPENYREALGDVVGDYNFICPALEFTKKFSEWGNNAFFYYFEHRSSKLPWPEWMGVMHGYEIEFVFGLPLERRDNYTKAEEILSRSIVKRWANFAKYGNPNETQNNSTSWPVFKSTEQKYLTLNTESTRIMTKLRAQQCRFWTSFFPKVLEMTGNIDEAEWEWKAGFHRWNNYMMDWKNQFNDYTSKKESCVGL
T1 sequence (P22303 32-617 isoform P22303-2 limits assumed): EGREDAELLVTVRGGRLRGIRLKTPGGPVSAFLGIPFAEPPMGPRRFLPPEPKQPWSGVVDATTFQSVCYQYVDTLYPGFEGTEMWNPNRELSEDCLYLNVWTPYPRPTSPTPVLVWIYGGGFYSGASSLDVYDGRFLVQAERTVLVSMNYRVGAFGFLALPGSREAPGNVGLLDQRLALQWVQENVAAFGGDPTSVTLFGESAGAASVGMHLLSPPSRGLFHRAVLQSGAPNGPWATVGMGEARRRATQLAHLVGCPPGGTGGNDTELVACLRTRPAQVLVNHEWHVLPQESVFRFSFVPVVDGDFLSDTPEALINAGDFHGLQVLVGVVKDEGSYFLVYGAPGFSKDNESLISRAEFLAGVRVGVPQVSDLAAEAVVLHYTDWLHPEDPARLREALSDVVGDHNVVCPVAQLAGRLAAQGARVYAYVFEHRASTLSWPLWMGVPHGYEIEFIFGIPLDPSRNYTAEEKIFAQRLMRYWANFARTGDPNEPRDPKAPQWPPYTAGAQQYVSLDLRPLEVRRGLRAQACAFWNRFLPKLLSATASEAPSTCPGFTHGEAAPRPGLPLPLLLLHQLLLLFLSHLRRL

SMILES | Ki [1] [µM] | Ki (AChE)/Ki (BChE) [1] | Ki [2, 9] [µM] | IC50 [3, 10] [µM] | IC50 [3, 11] [µM] | IC50 [3, 12] [µM] | IC50 [4, 13] [µM] | IC50 [4, 14] [µM] | IC50 [4, 15] [µM] | Mitochondrial membrane potential (ΔΨm) [5] | LDH release [6] | LDH release [7] | Mitochondrial membrane potential (ΔΨm) [8] | Ki [2] [µM] | times less efficient than donepezil ([1]; AChE Ki compared to donepezil)
CCCCCCCC[N+]12CCC(CC1)C(O)C2 (stereo not shown) [Compound 1] | 156 ± 26.1 | 1.8 | 85.1 ± 22.1 | ≥ 800 | ≥ 800 | ≥ 800 | ≥ 800 | ≥ 800 | ≥ 800 |  |  |  |  |  | 
CCCCCCCCCC[N+]12CCC(CC1)C(O)C2 (stereo not shown) [Compound 2] | 63.8 ± 5.1 | 5.4 | 11.8 ± 1.1 | ≥ 800 | ≥ 800 | ≥ 537 | ≥ 800 | ≥ 800 | ≥ 800 |  |  |  |  |  | 
CCCCCCCCCCCC[N+]12CCC(CC1)C(O)C2 (stereo not shown) [Compound 3] | 13.2 ± 0.6 | 1.5 | 9 ± 0.8 | 135 ± 1 | 81 ± 1 | 66 ± 1 | 74 ± 1 | 56 ± 1 | 145 ± 1 | decrease in the mitochondrial membrane potential | strongest effect; also recorded: significant LDH release | significant LDH release | decrease in the mitochondrial membrane potential |  | 
CCCCCCCCCCCCCC[N+]12CCC(CC1)C(O)C2 (stereo not shown) [Compound 4] | 4.2 ± 0.5 | 0.5 | 7.9 ± 0.7 | 35 ± 1 | 32 ± 1 | 43 ± 1 | 9 ± 1 | 7 ± 1 | 16 ± 1 | decrease in the mitochondrial membrane potential | strongest effect; also recorded: significant LDH release | significant LDH release | decrease in the mitochondrial membrane potential |  | 
CCCCCCCCCCCCCCCC[N+]12CCC(CC1)C(O)C2 (stereo not shown) [Compound 5] | 9 ± 1.3 | 0.3 | 26.1 ± 2.4 | 46 ± 1 | 26 ± 1 | 28 ± 1 | 8 ± 1 | 7 ± 1 | 11 ± 1 | decrease in the mitochondrial membrane potential | strongest effect; also recorded: significant LDH release | significant LDH release | strongest effect; also recorded: decrease in the mitochondrial membrane potential |  | 
OC1C[N+]2(CCCCCCCC[N+]34CCC(CC3)C(O)C4)CCC1CC2 (stereo not shown) [Compound 6, 1,1′-(octano)bis(3-hydroxyquinuclidinium bromide)] | 24 ± 1.1 | 1.9 | 12.9 ± 1 | ≥ 800 | ≥ 800 | ≥ 800 | ≥ 800 | ≥ 800 | ≥ 800 |  |  |  |  |  | 
OC1C[N+]2(CCCCCCCCCC[N+]34CCC(CC3)C(O)C4)CCC1CC2 (stereo not shown) [Compound 7, 1,1’-(decano)bis(3-hydroxyquinuclidinium bromide)] | 0.52 ± 0.05 | 0.3 | 1.6 ± 0.2 | ≥ 800 | ≥ 800 | ≥ 800 | ≥ 800 | ≥ 800 | ≥ 800 |  |  |  |  |  | 
CCCCCCCC[N+]12CCC(CC1)C(=NO)C2.[Br-] [Compound 8, 1-octyl-3-hydroxyiminoquinuclidinium bromide] | 82.7 ± 3.5 | 2.2 |  | ≥ 800 | ≥ 800 | ≥ 800 | ≥ 800 | ≥ 800 | ≥ 800 |  |  |  |  | 37.9 ± 10.4 | 
CCCCCCCCCC[N+]12CCC(CC1)C(=NO)C2.[Br-] [Compound 9, 1-decyl-3-hydroxyiminoquinuclidinium bromide] | 23.8 ± 0.8 | 4.6 |  | ≥ 800 | ≥ 800 | ≥ 800 | ≥ 800 | ≥ 800 | ≥ 800 |  |  |  |  | 5.2 ± 1.1 | 
ON=C1C[N+]2(CCCCCCCC[N+]34CCC(CC3)C(=NO)C4)CCC1CC2 [Compound 13, 1,1’-(octano)bis(3-hydroxyiminoquinuclidinium bromide)] | 1.8 ± 0.07 | 0.5 | 3.4 ± 0.2 | ≥ 800 | ≥ 800 | ≥ 800 | ≥ 800 | ≥ 800 | ≥ 800 |  |  |  |  |  | 
ON=C1C[N+]2(CCCCCCCCCC[N+]34CCC(CC3)C(=NO)C4)CCC1CC2 [Compound 14, 1,1’-(decano)bis(3-hydroxyiminoquinuclidinium bromide)] | 0.26 ± 0.02 | 0.2 | 1.2 ± 0.06 | ≥ 800 | ≥ 800 | ≥ 800 | ≥ 800 | ≥ 800 | ≥ 800 |  |  |  |  |  | around 60
